# From BindingDB's records for doi:10.1016/j.bmcl.2009.09.081 (Lexicon Pharmaceuticals, 2009)
# Assay: Inhibition of deoxycytidine kinase-mediated arabinoside C-induced cytotoxicity
row,SMILES,EC50 [nM]
1,"Nc1nc(=O)n([C@H]2CC[C@H](NS(=O)(=O)c3cccc(-c4ccc(Cl)cc4Cl)c3)C2)cc1F [N-((1S,3S)-3-(4-amino-5-fluoro-2-oxopyrimidin-1(2H)-yl)cyclopentyl)-2',4'-dichlorobiphenyl-3-sulfonamide]",530
2,"Nc1nc(=O)n([C@H]2CC[C@H](NS(=O)(=O)c3ccc(Br)cc3)C2)cc1F [N-((1S,3S)-3-(4-amino-5-fluoro-2-oxopyrimidin-1(2H)-yl)cyclopentyl)-4-bromobenzenesulfonamide]",11000
3,"CS(=O)(=O)c1ccc(-c2cccc(S(=O)(=O)N[C@H]3CC[C@H](n4cc(F)c(N)nc4=O)C3)c2)cc1 [N-((1S,3S)-3-(4-amino-5-fluoro-2-oxopyrimidin-1(2H)-yl)cyclopentyl)-4'-(methylsulfonyl)biphenyl-3-sulfonamide]",1800
4,"Cc1ccc(-c2cccc(S(=O)(=O)N[C@H]3CC[C@H](n4cc(F)c(N)nc4=O)C3)c2)cc1 [N-((1S,3S)-3-(4-amino-5-fluoro-2-oxopyrimidin-1(2H)-yl)cyclopentyl)-4'-methylbiphenyl-3-sulfonamide]",500
5,"COc1ccc(-c2cccc(S(=O)(=O)N[C@H]3CC[C@H](n4cc(F)c(N)nc4=O)C3)c2)cc1 [N-((1S,3S)-3-(4-amino-5-fluoro-2-oxopyrimidin-1(2H)-yl)cyclopentyl)-4'-methoxybiphenyl-3-sulfonamide]",300
6,"Nc1nc(=O)n([C@H]2CC[C@H](NS(=O)(=O)c3ccc(-c4ccccc4)cc3)C2)cc1F [N-((1S,3S)-3-(4-amino-5-fluoro-2-oxopyrimidin-1(2H)-yl)cyclopentyl)biphenyl-4-sulfonamide]",5500
7,"Cc1cc(Cl)ccc1-c1cccc(C(=O)N[C@H]2CC[C@H](n3cc(F)c(N)nc3=O)C2)c1 [N-((1S,3S)-3-(4-amino-5-fluoro-2-oxopyrimidin-1(2H)-yl)cyclopentyl)-4'-chloro-2'-methylbiphenyl-3-carboxamide]",170
8,"Nc1nc(=O)n([C@H]2CC[C@H](NS(=O)(=O)c3cccc(Br)c3)C2)cc1F [N-((1S,3S)-3-(4-amino-5-fluoro-2-oxopyrimidin-1(2H)-yl)cyclopentyl)-3-bromobenzenesulfonamide]",2800
9,"Nc1nc(=O)n([C@H]2CC[C@H](NS(=O)(=O)c3ccc([N+](=O)[O-])cc3)C2)cc1F [N-((1S,3S)-3-(4-amino-5-fluoro-2-oxopyrimidin-1(2H)-yl)cyclopentyl)-4-nitrobenzenesulfonamide]",16000
10,"Cc1cc(Cl)ccc1-c1cccc(S(=O)(=O)N[C@H]2CC[C@H](n3cc(F)c(N)nc3=O)C2)c1 [N-((1S,3S)-3-(4-amino-5-fluoro-2-oxopyrimidin-1(2H)-yl)cyclopentyl)-4'-chloro-2'-methylbiphenyl-3-sulfonamide]",290
11,"Nc1nc(=O)n([C@H]2CC[C@H](NS(=O)(=O)c3cccc(-c4ccccc4)c3)C2)cc1F [N-((1S,3S)-3-(4-amino-5-fluoro-2-oxopyrimidin-1(2H)-yl)cyclopentyl)biphenyl-3-sulfonamide]",600
12,"N#Cc1ccc(-c2cccc(S(=O)(=O)N[C@H]3CC[C@H](n4cc(F)c(N)nc4=O)C3)c2)cc1 [N-((1S,3S)-3-(4-amino-5-fluoro-2-oxopyrimidin-1(2H)-yl)cyclopentyl)-4'-cyanobiphenyl-3-sulfonamide]",390
13,"Nc1nc(=O)n([C@H]2CC[C@H](NC(=O)c3cccc(-c4ccccc4)c3)C2)cc1F [N-((1S,3S)-3-(4-amino-5-fluoro-2-oxopyrimidin-1(2H)-yl)cyclopentyl)biphenyl-3-carboxamide]",910
14,"NC(=O)c1ccc(-c2cccc(S(=O)(=O)N[C@H]3CC[C@H](n4cc(F)c(N)nc4=O)C3)c2)cc1 [3'-(N-((1S,3S)-3-(4-amino-5-fluoro-2-oxopyrimidin-1(2H)-yl)cyclopentyl)sulfamoyl)biphenyl-4-carboxamide]",5900
15,"COc1ccc(-c2cccc(C(=O)N[C@H]3CC[C@H](n4cc(F)c(N)nc4=O)C3)c2)cc1 [N-((1S,3S)-3-(4-amino-5-fluoro-2-oxopyrimidin-1(2H)-yl)cyclopentyl)-4'-methoxybiphenyl-3-carboxamide]",100
16,"Nc1nc(=O)n([C@H]2CC[C@H](NC(=O)c3cccc(-c4ccc(Cl)cc4)c3)C2)cc1F [N-((1S,3S)-3-(4-amino-5-fluoro-2-oxopyrimidin-1(2H)-yl)cyclopentyl)-4'-chlorobiphenyl-3-carboxamide]",270
17,"Nc1nc(=O)n([C@H]2CC[C@H](NC(=O)c3cccc(-c4cccc(Cl)c4)c3)C2)cc1F [N-((1S,3S)-3-(4-amino-5-fluoro-2-oxopyrimidin-1(2H)-yl)cyclopentyl)-3'-chlorobiphenyl-3-carboxamide]",180
18,"Nc1nc(=O)n([C@H]2CC[C@H](NS(=O)(=O)c3cccc(-c4cccc(Cl)c4)c3)C2)cc1F [N-((1S,3S)-3-(4-amino-5-fluoro-2-oxopyrimidin-1(2H)-yl)cyclopentyl)-3'-chlorobiphenyl-3-sulfonamide]",360
19,"Nc1nc(=O)n([C@H]2CC[C@H](NS(=O)(=O)c3cccc(-c4ccccc4Cl)c3)C2)cc1F [N-((1S,3S)-3-(4-amino-5-fluoro-2-oxopyrimidin-1(2H)-yl)cyclopentyl)-2'-chlorobiphenyl-3-sulfonamide]",430
20,"Nc1nc(=O)n([C@H]2CC[C@H](NS(=O)(=O)c3cccc(-c4ccc(Cl)cc4)c3)C2)cc1F [N-((1S,3S)-3-(4-amino-5-fluoro-2-oxopyrimidin-1(2H)-yl)cyclopentyl)-4'-chlorobiphenyl-3-sulfonamide]",240
21,"Nc1nc(=O)n([C@H]2CC[C@H](NS(=O)(=O)c3ccccc3)C2)cc1F [N-((1S,3S)-3-(4-amino-5-fluoro-2-oxopyrimidin-1(2H)-yl)cyclopentyl)benzenesulfonamide]",17000
